Data from patent publication US5321030A, “Creatine analogs having antiviral activity” (priority 1991, dated 1994).

Tests used:
creatine kinase [1] = target: T1, creatine kinase (Oryctolagus cuniculus, UniProt P00563); assay: Phosphorylation by creatine kinase, coupled assay with pyruvate kinase and LDH; format: biochemical; conditions: 40 mM
Procedure: Compound 5/6 (AM 361), where R=CH3, was prepared as described above and assayed for phosphorylation by creatine kinase in a coupled assay with pyruvate kinase and lactate dehydrogenase (LDH) as described (Bergmeyer, H. U., ed. (1974), In: Methods of Enzymatic Analysis, Second English Edition, Volume 4, (Verlag Chemie Weinheim and Academic Press, Inc.: New York, London) pp. 1772-1779). Each compound listed in Table 11 below was tested at a concentration of 40 mM. Compound 5/6 (AM 361) was slowly phosphorylated.

HSV-1 = assay: Cytopathic effect (CPE) assay, HSV-1; conditions: for effect on percent monolayer cell death, second set of experiments: 0-200 PFU, series of concentrations; for protective effect: no agar overlay, highest concentrations tested
creatine kinase [2] = target: T1, creatine kinase; conditions: cited from earlier work
[3] = Drug cytotoxicity in CPE assay (monolayer death in absence of virus); conditions: monkey, vero cells
[4] = test system: Vesicular stomatitis virus (VSV), Indiana strain; format: cell-based; conditions: tested in parallel
[5] = test system: Pseudorabies virus, Aujeszky strain; format: cell-based; conditions: similar assay
[6] = test system: Guinea Pig Cytomegalovirus, Strain 22122; assay: CPE reduction assay, guinea pig cytomegalovirus in GPE cells; format: cell-based; conditions: 12.5 mg/ml
[7] = test system: Varicella-Zoster Virus, strain Oka; assay: microbe, parasite or virus in culture; format: cell-based; conditions: Human alphaherpesvirus 3, MRC5, read-out: plaque reduction

T1 sequence (P00563 whole entry): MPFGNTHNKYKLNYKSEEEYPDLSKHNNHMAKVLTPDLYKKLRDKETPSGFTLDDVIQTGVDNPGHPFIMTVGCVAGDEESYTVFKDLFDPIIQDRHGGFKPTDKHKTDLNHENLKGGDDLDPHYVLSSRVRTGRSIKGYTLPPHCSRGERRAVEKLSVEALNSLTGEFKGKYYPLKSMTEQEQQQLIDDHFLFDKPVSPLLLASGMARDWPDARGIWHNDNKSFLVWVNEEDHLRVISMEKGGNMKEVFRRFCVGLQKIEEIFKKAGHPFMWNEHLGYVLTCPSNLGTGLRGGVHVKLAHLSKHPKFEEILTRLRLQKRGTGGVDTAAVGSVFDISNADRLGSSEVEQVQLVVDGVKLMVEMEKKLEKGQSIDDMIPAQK

1-carboxymethyl-2-iminomethylimidazolidine [AM 361]
% Rate of Creatine (creatine kinase [1]): 2.4% | Δ in Absorbance/min (creatine kinase [1]): 0.041 | effect on cytopathic effect (HSV-1; 22.1 mM, Vero cells): reduced the cytopathic effect as compared with the no drug control in wells inoculated with 25 or 50 PFU/well | virus-induced monolayer death (HSV-1; 44.2 mM, Vero cells, each inoculum 12-200 PFU/well (no drug control 30-90%)): 2% | effect on cytopathic effect (HSV-1; 18.2-72.7 mM, serum-starved Vero cells, FIG. 17A): inhibited the cytopathic effect

Nc1nccn1CC(=O)O [1-carboxymethyl-2-aminoimidazole, reference compound]
binding to creatine kinase (creatine kinase [2]): an affinity equal to that of cyclocreatine | initial rate of phosphorylation by creatine kinase, slower (creatine kinase [2]): 5 orders of magnitude | dose response against cytopathogenicity (HSV-1; Vero cells, 0.31-5.0 mg/ml, FIG. 16): shows no such effect

N=C1NCCCN1CC(=O)O [1-carboxymethyl-2-iminohexahydropyrimidine, reference compound]
effect on percent monolayer cell death, second set of experiments (HSV-1; Vero cells): no dose-response or consistent protective effect | protective effect (HSV-1; Vero cells, 125 PFUs): weak protective effect in some wells

N=C1NCC(=O)N1CC(=O)O [Compound 7]
antiviral activity (HSV-1; 41.7 mM, Vero cells, 12-200 PFU/well): consistent antiviral activity | cytotoxicity at 41700 µM [3]: 4%

CN=C1NCCN1CC(=O)O [Compound 10a]
effect on monolayer death (HSV-1; 19.1 mM, 12, 50, 100 or 200 PFU/well, not 25 PFU/well): a reduction in monolayer death | cytotoxicity at 38200 µM [3]: 5%

C=CCN=C1NCCN1CC(=O)O [Compound 10b]
antiviral effect (HSV-1; 2.58-45.90 mM, Vero cells, 12-200 PFU/well): No consistent antiviral effect | cytotoxicity at 23000 µM [3]: 7% | cytotoxicity at 45900 µM [3]: 30%

CCN(CC(=O)O)C(=N)N [EGA, N-ethyl-N-amidinoglycine, reference compound]
effect on percent monolayer cell death, second set of experiments (HSV-1; Vero cells): no dose-response or consistent protective effect | protective effect (HSV-1; Vero cells, 125 PFUs): weak protective effect in some wells

CN(CC(=O)O)C(=N)NP(=O)(O)O [P-creatine, N-phosphorocreatine, reference compound]
Km (creatine kinase [2]; reverse reaction, without cyclocreatine, read-out: Km of P-creatine): 1800 µM

NC(=O)c1ncn([C@@H]2O[C@H](CO)[C@@H](O)[C@H]2O)n1 [Ribavirin, reference compound]
effect on the virus [4]: only a moderate effect

Nc1ncnc2c1ncn2[C@@H]1O[C@H](CO)[C@@H](O)[C@@H]1O [adenine arabinoside]
effect against Pseudorabies virus [5]: ineffective

CC(CC(=O)O)C(=N)N (stereo not shown) [carbocreatine, 3-amidinobutyric acid, reference compound]
effect on percent monolayer cell death, second set of experiments (HSV-1; Vero cells): no dose-response or consistent protective effect | protective effect (HSV-1; Vero cells, 125 PFUs): weak protective effect in some wells

CN(CC(=O)O)C(=N)N [creatine]
% Rate of Creatine (creatine kinase [1]): 100% | Δ in Absorbance/min (creatine kinase [1]): 1.18 | activity (HSV-1; 70 mM, Vero cells, 125 PFUs): some activity

N=C1NCCN1CCC(=O)O [homocyclocreatine, 1-carboxyethyl-2-iminoimidazolidine, reference compound]
Ave. CPE [6]: 3.7 | inhibition at 1000 µg/mL [7]: 36% | inhibition at 2000 µg/mL [7]: 39% | inhibition at 4000 µg/mL [7]: 50%

N=C(N)NCCC(=O)O [β-guanidinopropionate, β-guanidinopropionic acid, reference compound]
effect on percent monolayer cell death, second set of experiments (HSV-1; Vero cells): no dose-response or consistent protective effect | protective effect (HSV-1; Vero cells, 125 PFUs): weak protective effect in some wells

isoepoxycreatine [reference compound]
inactivation of creatine kinase (creatine kinase [2]; affinity reagent): completely and irreversibly inactivate creatine kinase
